In patent US20230312587A1, “PTERIDINONE COMPOUNDS AND USES THEREOF” (Vertex Pharmaceutical Incorporated, priority 2018, published 2023):

The compounds below were run on β-catenin-TCF-mediated reporter transcription activity in Colo 205 cells (assay: Colo 205 reporter assay (TCF/LEF luciferase)). Conditions: Homo sapiens, COLO 205, 5 h, Colo 205 TCF/LEF luciferase reporter, five hours after addition of compound; read-out: TCF reporter Colo205 IC50.
Type: cell-based
Outline: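 Luciferase signal from a TCF/LEF-driven reporter, stably integrated in Colo 205 colon cancer cells, was measured 5 h after compound addition.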

Row | Structure (SMILES) | IC50 [nM]
1 | CN1C(=O)C2(COC2)N(C)c2nc(NCc3cnn(Cc4ccc(F)cc4)c3)ncc21 [Compound 228, 2′-(((1-(4-fluorobenzyl)-1H-pyrazol-4-yl)methyl)amino)-5′,8′-dimethyl-5′,8′-dihydro-6′H-spiro[oxetane-3,7′-pteridin]-6′-one] | 1000 to 5000
2 | Cc1nc(N[C@H]2C[C@@H](Cn3nc(Cl)c(C#N)n3)C2)nc2c1NC(=O)[C@H](C(C)C)N2C [Compound 695, 5-chloro-2-((cis-3-(((S)-7-isopropyl-4,8-dimethyl-6-oxo-5,6,7,8-tetrahydropteridin-2-yl)amino)cyclobutyl)methyl)-2H-1,2,3-triazole-4-carbonitrile] | < 300
3 | Cc1nc(N[C@H]2C[C@@H](Cn3nc(C4CC4)cc3C(F)(F)F)C2)nc2c1NC(=O)[C@H](C(C)C)N2C [Compound 581, (S)-2-((cis-3-((3-cyclopropyl-5-(trifluoromethyl)-1H-pyrazol-1-yl)methyl)cyclobutyl)amino)-7-isopropyl-4,8-dimethyl-7,8-dihydropteridin-6(5H)-one] | < 300
4 | Cc1nc(NC2CN(C(=O)Nc3cc(F)c(F)c(F)c3)C2)nc2c1NC(=O)[C@H](C(C)C)N2C [Compound 564, (7S)-3-((7-isopropyl-4,8-dimethyl-6-oxo-5,6,7,8-tetrahydropteridin-2-yl)amino)-N-(3,4,5-trifluorophenyl)azetidine-1-carboxamide] | 1000 to 5000
5 | Cc1nc(NC2CN(C(=O)c3cnc(Cl)s3)C2)nc2c1NC(=O)[C@H](C(C)C)N2C [Compound 633, (S)-2-((1-(2-chlorothiazole-5-carbonyl)azetidin-3-yl)amino)-7-isopropyl-4,8-dimethyl-7,8-dihydropteridin-6(5H)-one] | 1000 to 5000
6 | Cc1nc(NC2CN(C(=O)CC3CC4CCC3C4)C2)nc2c1NC(=O)[C@H](C(C)C)N2C (stereo partly drawn) [Compound 623, (7S)-2-((1-(2-(bicyclo[2.2.1]heptan-2-yl)acetyl)azetidin-3-yl)amino)-7-isopropyl-4,8-dimethyl-7,8-dihydropteridin-6(5H)-one] | 300 to 1000
7 | Cc1nc(N[C@H]2C[C@@H](Cn3ccc(Cl)n3)C2)nc2c1NC(=O)[C@H](C(C)C)N2C [Compound 583, (S)-2-((cis-3-((3-chloro-1H-pyrazol-1-yl)methyl)cyclobutyl)amino)-7-isopropyl-4,8-dimethyl-7,8-dihydropteridin-6(5H)-one] | < 300
8 | Cc1nc(NCc2cnn(-c3ccc(C(F)(F)F)nc3)c2)nc2c1NC(=O)[C@H](C)N2C [Compound 468, (S)-4,7,8-trimethyl-2-(((1-(6-(trifluoromethyl)pyridin-3-yl)-1H-pyrazol-4-yl)methyl)amino)-7,8-dihydropteridin-6(5H)-one] | < 300
9 | Cc1cc(Cn2cc(CNc3nc(C)c4c(n3)N(C)[C@@H](C)C(=O)N4)cn2)cnc1C(F)(F)F [Compound 199, (7S)-4,7,8-trimethyl-2-(((1-((5-methyl-6-(trifluoromethyl)pyridin-3-yl)methyl)-1H-pyrazol-4-yl)methyl)amino)-7,8-dihydropteridin-6(5H)-one] | < 300
10 | Cc1nc(N[C@H]2C[C@@H](COc3ccc(F)nc3)C2)nc2c1NC(=O)[C@H](C(C)C)N2C [Compound 574, (S)-2-((cis-3-(((6-fluoropyridin-3-yl)oxy)methyl)cyclobutyl)amino)-7-isopropyl-4,8-dimethyl-7,8-dihydropteridin-6(5H)-one] | < 300
11 | Cc1nc(NCc2ncn(Cc3cc(F)c(F)c(F)c3)n2)nc2c1NC(=O)[C@H](C(C)C)N2C [Compound 490, (S)-7-isopropyl-4,8-dimethyl-2-(((1-(3,4,5-trifluorobenzyl)-1H-1,2,4-triazol-3-yl)methyl)amino)-7,8-dihydropteridin-6(5H)-one] | ≥ 5000

Same assay, conditions: Homo sapiens, COLO 205, 5 h, R-isomer at C2 (corresponding to C2 S-isomer); Colo 205 TCF/LEF luciferase reporter, 5 h; read-out: TCF reporter Colo205 IC50

Row | Structure (SMILES) | IC50 [nM]
12 | Cc1nc(NCc2cnn(Cc3cc(C(F)(F)F)nn3C)c2)nc2c1NC(=O)[C@@H](C1CC1)N2C [Compound I-1498] | 300 to 1000
13 | Cc1nc(NCc2cnn(Cc3ccc(F)nc3)c2)nc2c1NC(=O)[C@@H](C1CC1)N2C [Compound I-1641] | ≥ 5000
